Experimental data: patent publication US12084472B2 (Ardelyx, Inc., priority 2015, dated 2024)

target: T1, human TGR5 (Homo sapiens, UniProt Q8TDU6); experiment: Cell-based TGR5 assay (cAMP generation, HTRF); settings: HEK293 cells stably transfected with human TGR5; cAMP by HTRF; 30 minutes at 37° C.; read-out: pEC50 Human TGR5 (converted)
T1 construct: expressed in transfected cells; host or cells: HEK293
T1 sequence (Q8TDU6 1-330): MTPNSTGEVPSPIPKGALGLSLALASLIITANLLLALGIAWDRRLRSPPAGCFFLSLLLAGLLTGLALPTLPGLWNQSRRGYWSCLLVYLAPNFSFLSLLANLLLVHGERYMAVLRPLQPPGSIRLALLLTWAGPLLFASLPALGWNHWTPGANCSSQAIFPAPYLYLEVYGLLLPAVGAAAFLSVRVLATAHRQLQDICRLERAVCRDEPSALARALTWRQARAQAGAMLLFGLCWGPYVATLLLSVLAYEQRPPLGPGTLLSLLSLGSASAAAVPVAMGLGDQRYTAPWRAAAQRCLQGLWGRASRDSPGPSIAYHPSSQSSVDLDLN
How it was run: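 Read-out was HTRF detection of cAMP, converted to concentration via a standard curve and fitted (3-parameter logistic) for pEC50 and maximal response. Agonist stimulation used HEK293 cells stably transfected with human TGR5, incubated 30 min at 37° C in IBMX-containing buffer at 0.05 nM to 10 μM compound.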

EC50, < 100 nM:
COCCN(CCCC(C)c1ccc(C)c(CNC2(c3cnccc3-c3ccccc3OC3CC3)CC2)c1)C(=O)[C@@H](O)[C@@H](O)[C@H](O)[C@@H](O)CO (stereo partly drawn) [Compound I-302, (2S,3S,4R,5S)-N-(4-{3-[({1-[4-(2-cyclopropoxyphenyl)pyridin-3-yl]cyclopropyl}amino)methyl]-4-methylphenyl}pentyl)-2,3,4,5,6-pentahydroxy-N-(2-methoxyethyl)hexanamide]
COCCCN(CCCC(C)c1ccc(C)c(CNC2(c3cnccc3-c3ccccc3OC3CC3)CC2)c1)C(=O)[C@@H](O)[C@@H](O)[C@H](O)[C@@H](O)CO (stereo partly drawn) [Compound I-303, (2S,3S,4R,5S)-N-(4-{3-[({1-[4-(2-cyclopropoxyphenyl)pyridin-3-yl]cyclopropyl}amino)methyl]-4-methylphenyl}pentyl)-2,3,4,5,6-pentahydroxy-N-(3-methoxypropyl)hexanamide]
Cc1ccc(C(C)CCCN(C(=O)[C@@H](O)[C@@H](O)[C@H](O)[C@@H](O)CO)C2CCOCC2)cc1CNC1(c2cnccc2-c2ccccc2OC2CC2)CC1 (stereo partly drawn) [Compound I-304, (2S,3S,4R,5S)-N-(4-{3-[({1-[4-(2-cyclopropoxyphenyl)pyridin-3-yl]cyclopropyl}amino)methyl]-4-methylphenyl}pentyl)-2,3,4,5,6-pentahydroxy-N-(oxan-4-yl)hexanamide]
Cc1ccc(C(C)CCCN(CCS(C)(=O)=O)C(=O)[C@@H](O)[C@@H](O)[C@H](O)[C@@H](O)CO)cc1CNC1(c2cnccc2-c2ccccc2OC2CC2)CC1 (stereo partly drawn) [Compound I-305, (2S,3S,4R,5S)-N-(4-{3-[({1-[4-(2-cyclopropoxyphenyl)pyridin-3-yl]cyclopropyl}amino)methyl]-4-methylphenyl}pentyl)-2,3,4,5,6-pentahydroxy-N-(2-methanesulfonylethyl) hexanamide]
Cc1ccc(C(C)CCCN(C(=O)[C@@H](O)[C@@H](O)[C@H](O)[C@@H](O)CO)C2CCS(=O)(=O)CC2)cc1CNC1(c2cnccc2-c2ccccc2OC2CC2)CC1 (stereo partly drawn) [Compound I-306, (2S,3S,4R,5S)-N-(4-{3-[({1-[4-(2-cyclopropoxyphenyl)pyridin-3-yl]cyclopropyl}amino)methyl]-4-methylphenyl}pentyl)-N-(1,1-dioxo-1λ^6-thian-4-yl)-2,3,4,5,6-pentahydroxyhexanamide]
CCS(=O)(=O)CCN(CCCC(C)c1ccc(C)c(CNC2(c3cnccc3-c3ccccc3OC3CC3)CC2)c1)C(=O)[C@@H](O)[C@@H](O)[C@H](O)[C@@H](O)CO (stereo partly drawn) [Compound I-307, (2S,3S,4R,5S)-N-(4-{3-[({1-[4-(2-cyclopropoxyphenyl)pyridin-3-yl]cyclopropyl}amino)methyl]-4-methylphenyl}pentyl)-N-[2-(ethanesulfonyl)ethyl]-2,3,4,5,6-pentahydroxyhexanamide]
CC(CCCCNC(=O)[C@@H](O)[C@@H](O)[C@H](O)[C@@H](O)CO)c1ccc(Cl)c(COC2(c3cnccc3-c3ccccc3OC3CC3)CC2)c1 (stereo partly drawn) [Compound I-308, (2S,3S,4R,5S)-N-{5-[4-chloro-3-({1-[4-(2-cyclopropoxyphenyl)pyridin-3-yl]cyclopropoxy}methyl)phenyl]hexyl}-2,3,4,5,6-pentahydroxyhexanamide]
CC(CCCN(CCS(C)(=O)=O)C(=O)[C@@H](O)[C@@H](O)[C@H](O)[C@@H](O)CO)c1ccc(Cl)c(COC2(c3cnccc3-c3ccccc3OC3CC3)CC2)c1 (stereo partly drawn) [Compound I-309, (2S,3S,4R,5S)-N-(4-[4-chloro-3-({1-[4-(2-cyclopropoxyphenyl)pyridin-3-yl]cyclopropoxy)methyl)phenyl]pentyl}-2,3,4,5,6-pentahydroxy-N-(2-methanesulfonylethyl)hexanamide]
CCS(=O)(=O)CCN(CCCC(C)c1ccc(Cl)c(COC2(c3cnccc3-c3ccccc3OC3CC3)CC2)c1)C(=O)[C@@H](O)[C@@H](O)[C@H](O)[C@@H](O)CO (stereo partly drawn) [Compound I-310, (2S,3S,4R,5S)-N-{4-[4-chloro-3-({1-[4-(2-cyclopropoxyphenyl)pyridin-3-yl]cyclopropoxy}methyl)phenyl]pentyl}-N-[2-(ethanesulfonyl)ethyl]-2,3,4,5,6-pentahydroxyhexanamide]
CC(CCCN(C(=O)[C@@H](O)[C@@H](O)[C@H](O)[C@@H](O)CO)C1CCS(=O)(=O)CC1)c1ccc(Cl)c(COC2(c3cnccc3-c3ccccc3OC3CC3)CC2)c1 (stereo partly drawn) [Compound I-311, (2S,3S,4R,5S)-N-{4-[4-chloro-3-({1-[4-(2-cyclopropoxyphenyl)pyridin-3-yl]cyclopropoxy}methyl)phenyl]pentyl}-N-(1,1-dioxo-1λ^6-thian-4-yl)-2,3,4,5,6-pentahydroxyhexanamide]
Cc1ccc(C(C)CCCCNC(=O)[C@@H](O)[C@@H](O)[C@H](O)[C@@H](O)CO)cc1COC1(c2cnccc2-c2ccccc2OC2CC2)CC1 (stereo partly drawn) [Compound I-312, (2S,3S,4R,5S)-N-{5-[3-({1-[4-(2-cyclopropoxyphenyl)pyridin-3-yl]cyclopropoxy}methyl)-4-methylphenyl]hexyl}-2,3,4,5,6-pentahydroxyhexanamide]
CC(CCCC(=O)N[C@@H](CO)[C@@H](O)[C@H](O)[C@H](O)CO)c1ccc(Cl)c(CNC2(c3cnccc3-c3ccccc3OC3CC3)CC2)c1 (stereo partly drawn) [Compound I-313, 5-{4-chloro-3-[({1-[4-(2-cyclopropoxyphenyl)pyridin-3-yl]cyclopropyl}amino)methyl]phenyl}-N-[(2S,3R,4S,5R)-1,3,4,5,6-pentahydroxyhexan-2-yl]hexanamide]
CC(CCCC(=O)NC[C@H](O)[C@@H](O)[C@H](O)[C@H](O)CO)c1ccc(Cl)c(CNC2(c3cnccc3-c3ccccc3OC3CC3)CC2)c1 (stereo partly drawn) [Compound I-316, 5-{4-chloro-3-[({1-[4-(2-cyclopropoxyphenyl)pyridin-3-yl]cyclopropyl}amino)methyl]phenyl}-N-[(2S,3R,4R,5R)-2,3,4,5,6-pentahydroxyhexyl]hexanamide]
CC(CCCCC(=O)NC[C@H](O)[C@@H](O)[C@H](O)[C@H](O)CO)c1ccc(Cl)c(CNC2(c3cnccc3-c3ccccc3OC3CC3)CC2)c1 (stereo partly drawn) [Compound I-317, 6-{4-chloro-3-[({1-[4-(2-cyclopropoxyphenyl)pyridin-3-yl]cyclopropyl}amino)methyl]phenyl}-N-[(2S,3R,4R,5R)-2,3,4,5,6-pentahydroxyhexyl]heptanamide]
CC(CCCC(=O)N1CCC(NC[C@H](O)[C@@H](O)[C@H](O)[C@H](O)C(=O)O)CC1)c1ccc(Cl)c(CNC2(c3cnccc3-c3ccccc3OC3CC3)CC2)c1 (stereo partly drawn) [Compound I-318, (2S,3S,4R,5S)-6-{[1-(5-{4-chloro-3-[({1-[4-(2-cyclopropoxyphenyl)pyridin-3-yl]cyclopropyl}amino)methyl]phenyl}hexanoyl)piperidin-4-yl]amino}-2,3,4,5-tetrahydroxyhexanoic acid]
CC(CCCC(=O)N1CCN(C(=O)NC[C@H](O)[C@@H](O)[C@H](O)[C@H](O)CO)CC1)c1ccc(Cl)c(CNC2(c3cnccc3-c3ccccc3OC3CC3)CC2)c1 (stereo partly drawn) [Compound I-319, 4-(5-{4-chloro-3-[({1-[4-(2-cyclopropoxyphenyl)pyridin-3-yl]cyclopropyl}amino)methyl]phenyl}hexanoyl)-N-[(2S,3R,4R,5R)-2,3,4,5,6-pentahydroxyhexyl]piperazine-1-carboxamide]
CC(CCCC(=O)N1CCC(NC(=O)NC[C@H](O)[C@@H](O)[C@H](O)[C@H](O)CO)CC1)c1ccc(Cl)c(CNC2(c3cnccc3-c3ccccc3OC3CC3)CC2)c1 (stereo partly drawn) [Compound I-320, 1-[1-(5-{4-chloro-3-[({1-[4-(2-cyclopropoxyphenyl)pyridin-3-yl]cyclopropyl}amino)methyl]phenyl}hexanoyl)piperidin-4-yl]-3-[(2S,3R,4R,5R)-2,3,4,5,6-pentahydroxyhexyl]urea]
CC(CCCC(=O)N1CCN(CC(=O)NC[C@H](O)[C@@H](O)[C@H](O)[C@H](O)CO)CC1)c1ccc(Cl)c(CNC2(c3cnccc3-c3ccccc3OC3CC3)CC2)c1 (stereo partly drawn) [Compound I-321, 2-[4-(5-{4-chloro-3-[({1-[4-(2-cyclopropoxyphenyl)pyridin-3-yl]cyclopropyl}amino)methyl]phenyl}hexanoyl)piperazin-1-yl]-N-[(2S,3R,4R,5R)-2,3,4,5,6-pentahydroxyhexyl]acetamide]
CC(CCCC(=O)NCCN1CCN(C(=O)NC[C@H](O)[C@@H](O)[C@H](O)[C@H](O)CO)CC1)c1ccc(Cl)c(CNC2(c3cnccc3-c3ccccc3OC3CC3)CC2)c1 (stereo partly drawn) [Compound I-322, 4-[2-(5-{4-chloro-3-[({1-[4-(2-cyclopropoxyphenyl)pyridin-3-yl]cyclopropyl}amino)methyl]phenyl}hexanamido)ethyl]-N-[(2S,3R,4R,5R)-2,3,4,5,6-pentahydroxyhexyl]piperazine-1-carboxamide]
CC(CCCC(=O)N1CCN(CCNC(=O)NC[C@H](O)[C@@H](O)[C@H](O)[C@H](O)CO)CC1)c1ccc(Cl)c(CNC2(c3cnccc3-c3ccccc3OC3CC3)CC2)c1 (stereo partly drawn) [Compound I-323, 1-{2-[4-(5-{4-chloro-3-[({1-[4-(2-cyclopropoxyphenyl)pyridin-3-yl]cyclopropyl}amino)methyl]phenyl}hexanoyl)piperazin-1-yl]ethyl}-3-[(2S,3R,4R,5R)-2,3,4,5,6-pentahydroxyhexyl]urea]
